Source: PubChem BioAssay AID330 (DTP/NCI, 2004)
Several values for one entry are separate records, joined by “and”; a condition that tells them apart may be missing. Equal entries are not always repeated. Toxic doses and inconclusive results are not listed.

Test system: P388 leukemia ip, CD2F1 mice, survival T/C
Test: NCI In Vivo Anticancer Drug Screen. Data for tumor model P388 Leukemia (intraperitoneal) in CD2F1 (CDF1) mice
Settings: endpoint: median survival time, higher = longer survival
Method in brief: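 Mice carrying the transplanted tumor received test compound or vehicle. Survival was recorded in each group, and the value is the treated-group measurement divided by that of the vehicle-treated control group.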

[1] = dose: 50.0 mg/kg/injection, schedule: Q01DX005 (ip), vehicle: Klucel (hydroxypropylcellulose) (HPC)
[2] = dose: 100.0 mg/kg/injection, schedule: Q01DX005 (ip), vehicle: Klucel (hydroxypropylcellulose) (HPC)
[3] = dose: 200.0 mg/kg/injection, schedule: Q01DX005 (ip), vehicle: Klucel (hydroxypropylcellulose) (HPC)
[4] = dose: 60.0 mg/kg/injection, schedule: Q01DX005 (ip), vehicle: saline with Tween-80
[5] = dose: 50.0 mg/kg/injection, schedule: Q01DX009 (ip), vehicle: saline with Tween-80
[6] = dose: 100.0 mg/kg/injection, schedule: Q01DX009 (ip), vehicle: saline with Tween-80

SMILES: CC(C)=CCCc1cc(-c2cc(CCC=C(C)C)nc(N)n2)nc(N)n1
- T/C (dose: 60.0 mg/kg/injection, schedule: Q01DX005 (ip), vehicle: saline): 99 % of control
- T/C (dose: 120.0 mg/kg/injection, schedule: Q01DX005 (ip), vehicle: saline): 103 % of control

SMILES: COC(=O)/C=C(\C(=O)OC)C1=C(N2CCCC2)CC(C)(C)CC1=O
- T/C [1]: 102 % of control
- T/C [2]: 100 % of control and 95 % of control
- T/C [3]: 100 % of control and 101 % of control

SMILES: N#CC(/C=C/c1ccccc1)(NO)Nc1cccc(Cl)c1 (stereo not drawn)
- T/C [4]: 116 % of control
- T/C (dose: 120.0 mg/kg/injection, schedule: Q01DX005 (ip), vehicle: saline with Tween-80): 114 % of control

SMILES: OCc1c(Cl)n(-c2ccccc2)c2ccccc12
- T/C (dose: 100.0 mg/kg/injection, schedule: Q04DX002 (ip), vehicle: Klucel (hydroxypropylcellulose) (HPC)): 96 % of control
- T/C (dose: 400.0 mg/kg/injection, schedule: Q04DX002 (ip), vehicle: Klucel (hydroxypropylcellulose) (HPC)): 98 % of control

SMILES: COC1C(/C=[N+](\[O-])C2C(C3COC(C)(C)O3)OC3OC(C)(C)OC32)OC2OC(C)(C)OC21 (stereo not drawn)
- T/C (dose: 50.0 mg/kg/injection, schedule: Q01DX009 (ip), vehicle: Klucel (hydroxypropylcellulose) (HPC)): 100 % of control
- T/C (dose: 100.0 mg/kg/injection, schedule: Q01DX009 (ip), vehicle: Klucel (hydroxypropylcellulose) (HPC)): 103 % of control
- T/C (dose: 200.0 mg/kg/injection, schedule: Q01DX009 (ip), vehicle: Klucel (hydroxypropylcellulose) (HPC)): 105 % of control

SMILES: CC(=NC(C)(C)C)Nc1ccc(Cl)cc1
- T/C [5]: 103 % of control
- T/C [6]: 109 % of control

SMILES: CN(C)CCN1C(=O)c2cccc3cc(N)cc(c23)C1=O
- T/C (dose: 2.0 mg/kg/injection, schedule: Q01DX009 (ip), vehicle: saline with Tween-80): 111 % of control
- T/C (dose: 8.0 mg/kg/injection, schedule: Q01DX009 (ip), vehicle: saline with Tween-80): 176 % of control

SMILES: O=C(Cc1nc(-c2ccc(Cl)cc2)no1)c1ccccc1
- T/C [5]: 91 % of control
- T/C [6]: 87 % of control

SMILES: N#Cc1c2c(c(N3CCCCC3)n3c1nc1ccccc13)CCC2
- T/C (dose: 15.0 mg/kg/injection, schedule: Q01DX005 (ip), vehicle: saline with Tween-80): 98 % of control
- T/C (dose: 30.0 mg/kg/injection, schedule: Q01DX005 (ip), vehicle: saline with Tween-80): 102 % of control
- T/C [4]: 91 % of control and 95 % of control

SMILES: OCCN1CCCN(CCCN2c3ccccc3Sc3ccc(C(F)(F)F)cc32)CC1
- T/C (dose: 6.25 mg/kg/injection, schedule: Q01DX005 (ip), vehicle: saline with Tween-80): 97 % of control
- T/C (dose: 12.5 mg/kg/injection, schedule: Q01DX005 (ip), vehicle: saline with Tween-80): 102 % of control
- T/C (dose: 25.0 mg/kg/injection, schedule: Q01DX005 (ip), vehicle: saline with Tween-80): 118 % of control

SMILES: O=c1c2sc3ccccc3c2ncn1/N=C/c1ccc(Cl)cc1
- T/C [1]: 105 % of control
- T/C [2]: 96 % of control
- T/C [3]: 88 % of control

SMILES: c1ccc(-c2nnc(-c3ccccc3)c3c2nn2ccc4ccccc4c32)cc1
- T/C (dose: 100.0 mg/kg/injection, schedule: Q01DX001 (ip), vehicle: saline with Tween-80): 90 % of control
- T/C (dose: 200.0 mg/kg/injection, schedule: Q01DX001 (ip), vehicle: saline with Tween-80): 89 % of control
- T/C (dose: 400.0 mg/kg/injection, schedule: Q01DX001 (ip), vehicle: saline with Tween-80): 103 % of control

SMILES: Cc1ccc(C2=C(Cl)C(=O)NC2=O)s1
- T/C (dose: 3.13 mg/kg/injection, schedule: Q01DX001 (ip), vehicle: saline): 100 % of control
- T/C (dose: 6.25 mg/kg/injection, schedule: Q01DX001 (ip), vehicle: saline): 99 % of control
- T/C (dose: 12.5 mg/kg/injection, schedule: Q01DX001 (ip), vehicle: saline): 95 % of control

SMILES: CC(C)C1=CC2=C(CC1)C1(C)CCCC(C)(C(=O)O)C1CC2 (stereo not drawn)
- T/C [6]: 100 % of control
- T/C (dose: 200.0 mg/kg/injection, schedule: Q01DX009 (ip), vehicle: saline with Tween-80): 100 % of control
- T/C (dose: 400.0 mg/kg/injection, schedule: Q01DX009 (ip), vehicle: saline with Tween-80): 100 % of control

SMILES: O=C(O)CCCNSc1ccccc1[N+](=O)[O-]
- T/C (dose: 12.5 mg/kg/injection, schedule: Q01DX009 (ip), vehicle: saline): 100 % of control and 117 % of control
- T/C (dose: 25.0 mg/kg/injection, schedule: Q01DX009 (ip), vehicle: saline): 108 % of control and 94 % of control
- T/C (dose: 50.0 mg/kg/injection, schedule: Q01DX009 (ip), vehicle: saline): 99 % of control and 110 % of control
- T/C (dose: 100.0 mg/kg/injection, schedule: Q01DX009 (ip), vehicle: saline): 100 % of control and 108 % of control

SMILES: CCCOc1ccc2c(NCCCCCCCCNc3c4ccccc4nc4cc(OCCC)ccc34)c3ccccc3nc2c1
- T/C (dose: 0.63 mg/kg/injection, schedule: Q01DX009 (ip), vehicle: other): 109 % of control
- T/C (dose: 1.25 mg/kg/injection, schedule: Q01DX009 (ip), vehicle: lactic acid): 162 % of control
- T/C (dose: 7.5 mg/kg/injection, schedule: Q01DX009 (ip), vehicle: other): 90 % of control
